Reference: ChEMBL document CHEMBL3244065, “Neuroleptics related to butaclamol. An investigation of the effects of chlorine substituents on the aromatic rings” (J Med Chem, 1978)

Legend:
Rattus norvegicus [1] = test: Neuroleptic activity in ip dosed Sprague-Dawley rat assessed as conditioned active avoidance failure after 30 mins; assay type: functional; conditions: 0.5 h
Rattus norvegicus [2] = test: Toxicity in ip dosed Sprague-Dawley rat assessed as induction of maximum catalepsy; assay type: organism-based; conditions: in vivo
Rattus norvegicus [3] = test: Neuroleptic activity in ip dosed Sprague-Dawley rat assessed as dose required to decrease the continuous (Sidman) lever-pressing response to <50%; assay type: functional
Rattus norvegicus [4] = test: Neuroleptic activity in ip dosed Sprague-Dawley rat assessed as protection against epinephrine-induced mortality administered 1 hr prior to epinephrine injection; assay type: functional
Rattus norvegicus [5] = test: Neuroleptic activity in ip dosed Sprague-Dawley rat assessed as inhibition of amphetamine-induced stereotyped behaviour administered 15 mins after d-amphetamine challenge; assay type: functional; conditions: 0.25 h, read-out: MED

Row | SMILES | ED50 (Rattus norvegicus [1]) [mg/kg] | MED (Rattus norvegicus [2]) [mg/kg] | Activity (Rattus norvegicus [3]) [mg/kg] | ED50 (Rattus norvegicus [4]) [mg/kg] | minimal effective dose (Rattus norvegicus [5]) [mg/kg]
1 | CC(C)[C@@]1(O)CCN2C[C@@H]3c4cccc(Cl)c4CCc4cccc(c43)[C@H]2C1.Cl | > 20 | 100 | 20 | 100 | 20
2 | CC(C)[C@@]1(O)CCN2C[C@@H]3c4ccccc4CCc4c(Cl)ccc(c43)[C@H]2C1.Cl | 9 | 50 | 2.5 | 50 | 10
3 | CC(C)[C@@]1(O)CCN2C[C@@H]3c4cc(Cl)ccc4CCc4c(Cl)ccc(c43)[C@H]2C1.Cl |  |  | >5 | > 60 | > 20
4 | OCCN1CCN(C2Cc3cc(Cl)ccc3Sc3ccccc32)CC1 (stereo not drawn) | 4.5 | > 50 | 2.5 | 0.88 | 20
5 | CC(C)[C@@]1(O)CCN2C[C@@H]3c4ccccc4CCc4cccc(c43)[C@H]2C1 [DEXCLAMOL] | 0.64 | 12.5 | 0.5 | 15 | 1.25
6 | CN1CCN(C2=Nc3cc(Cl)ccc3Nc3ccccc32)CC1 [CLOZAPINE] | 6.8 | > 100 | 7.5 | 2.4 | 50
7 | CC(C)[C@@]1(O)CCN2C[C@@H]3c4ccc(Cl)cc4CCc4cccc(c43)[C@H]2C1.Cl | 1.1 | 12.5 | 0.62 | 13.9 | 1.25
